The values below come from ChEMBL document CHEMBL1154963, “Part 2: Structure-activity relationship (SAR) investigations of fused pyrazoles as potent, selective and orally available inhibitors of p38alpha mitogen-activated protein kinase” (Bioorg Med Chem Lett, 2010).

Holding throughout (type): ADME, organism-based
A short description of data set [1]: Oral bioavailability in Sprague-Dawley rat at 2 mg/kg. The note with it: in vivo.
Data set [2] can be described thus: Half life in Sprague-Dawley rat at 2 mg/kg, iv. More on the design: dose 2 mg/kg, route intravenous. The note with it: in vivo.
A short description of data set [3]: Volume of distribution at steady state in Sprague-Dawley rat at 2 mg/kg, iv. More on the design: dose 2 mg/kg, route intravenous. The note with it: in vivo, read-out: Vdss.
The nature of data set [4]: AUC (0 to infinity) in Sprague-Dawley rat at 2 mg/kg, po. More on the design: time infinity, dose 2 mg/kg, route oral. The note with it: plasma.
The nature of data set [5]: Clearance in Sprague-Dawley rat at 2 mg/kg, iv. On the set-up: dose 2 mg/kg, route intravenous. The note with it: in vivo.

In data set [1], `O=C(NC1CC1)c1ccc(Cl)c(Nc2nncc3c2cnn3-c2c(F)cccc2F)c1` registered a bioavailability of 75%. For the same molecule, the half-life in data set [2] is 3.6 h. Also, the Vd in data set [3] was determined as 1.1 L/kg. This molecule displayed an AUC(0-inf) in data set [4] of 6830 ng·h/mL. The molecule further gave a clearance in data set [5] of 3.67 mL/min/kg.

Take `Cc1ccc(C(=O)NC2CC2)cc1Nc1nncc2c1cnn2-c1c(F)cccc1F`: in data set [1], the bioavailability was found to be 19%. Moreover, the half-life in data set [2] was 2.8 h. Further, the Vd in data set [3] came to 1.6 L/kg. The same molecule gave an area under the curve AUC(0-inf) in data set [4] of 671 ng·h/mL. The same molecule showed a clearance in data set [5] of 9.67 mL/min/kg.

The molecule `O=C(NC1CC1)c1ccc(Cl)c(Nc2nncc3c2cnn3-c2ccc(F)cc2F)c1` returned a bioavailability in data set [1] of 53%. Moreover, in data set [2], the half-life is 3.5 h. Also, in data set [3], the Vd came to 0.89 L/kg. In data set [4], this molecule gave a total exposure AUC(0-inf) of 6550 ng·h/mL. The clearance in data set [5] is 2.67 mL/min/kg.

Molecule `Cc1nnc(Nc2cc(C(=O)NC3CC3)ccc2Cl)c2cnn(-c3c(F)cccc3F)c12` showed a bioavailability in data set [1] of 91%. Further, the half-life in data set [2] is 2.2 h. In addition, the Vd in data set [3] worked out at 1.4 L/kg. The area under the curve AUC(0-inf) in data set [4] was determined as 3880 ng·h/mL. This molecule also gave a clearance in data set [5] of 7.83 mL/min/kg.

The bioavailability is dose-corrected exposure relative to a reference, in per cent. Lower therefore signals poor availability. One may read the half-life as the time needed for the level to fall by half in the phase considered. Lower therefore signals rapid decline. A word on the AUC(0-inf): it is total exposure, with the tail of the curve extrapolated. A high value points to high exposure. The term clearance denotes a measure of how efficiently the substance is removed, as volume per time. High values mean efficient removal, low ones inefficient removal.
